This note sets out measurements from patent US12156880B2, “Heterocyclic RIP1 kinase inhibitors” (Rigel Pharmaceuticals, Inc., priority 2021, dated 2024).

One assay deals with T1, RIPK1 (Homo sapiens, UniProt Q13546).
T1 sequence (Q13546 1-671): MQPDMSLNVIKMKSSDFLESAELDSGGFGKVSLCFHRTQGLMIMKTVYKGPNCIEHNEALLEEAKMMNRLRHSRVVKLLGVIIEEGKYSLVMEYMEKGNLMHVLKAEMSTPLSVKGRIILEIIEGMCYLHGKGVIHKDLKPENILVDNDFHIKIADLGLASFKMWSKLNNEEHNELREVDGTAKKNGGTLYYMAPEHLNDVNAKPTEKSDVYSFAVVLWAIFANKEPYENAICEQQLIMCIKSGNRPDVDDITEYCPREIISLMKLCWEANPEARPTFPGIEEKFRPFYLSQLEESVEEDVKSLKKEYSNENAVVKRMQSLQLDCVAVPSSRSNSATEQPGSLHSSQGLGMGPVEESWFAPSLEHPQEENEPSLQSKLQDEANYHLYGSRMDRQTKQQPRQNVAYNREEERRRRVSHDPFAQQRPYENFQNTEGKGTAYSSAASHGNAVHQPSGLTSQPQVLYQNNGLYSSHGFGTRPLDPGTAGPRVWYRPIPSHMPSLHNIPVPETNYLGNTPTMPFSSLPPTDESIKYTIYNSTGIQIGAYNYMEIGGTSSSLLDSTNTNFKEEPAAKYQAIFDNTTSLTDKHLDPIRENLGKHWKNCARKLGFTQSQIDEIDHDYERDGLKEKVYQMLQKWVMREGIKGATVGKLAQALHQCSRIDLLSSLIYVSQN
Kind of assay: RIPK1 ADP-Glo biochemical kinase assay. The settings on record: read-out: RIPK1 ADP-Glo Kinase (IC50). The gist of the method: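 RIPK1 at 31 ng/well in Tris pH 7.4 buffer with MgCl2, BSA, DTT and MnCl2, reacted with compounds (duplicate) for 30 min at 30 °C. ADP formed detected by ADP-Glo: 40 min stop/depletion, then 30 min detection reagent at room temperature; luminescence read.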
In general terms: ADP-Glo first removes unused ATP, then detects ADP through luciferase.

For a further assay, the system named is L929 cells. Kind of assay: L929 cell necroptosis assay (TNFa + zVAD, CellTiter-Glo recovery). The assay is classed as cell-based, murine. Set-up: L929-CTG-recovery, L929, TNFa + zVAD (IC50): unit not given here. The following applies: TNFa 2 ng/mL + zVAD-fmk; for IC50: Mus musculus, L929, 18 h, read-out: L929-CTG-recovery, L929, TNFa + zVAD (IC50). The gist of the method: (§1)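 Human U937 (50K/well, 60 uM zVAD-fmk medium, plated same day) or murine L929 (10K/well, plated 18 h, then 40 uM zVAD-fmk medium) were grown in RPMI with 10% FBS. Both were pretreated with compound for 1 h at 37 °C before TNFa at 2 ng/mL final. Viability was read by CellTiter-Glo luminescence after 18 h.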
A general note: Cellular ATP, detected with luciferase, serves as a proxy for viable cell number.

Another assay deals with U937 cells. Kind of assay: U937 cell necroptosis assay (TNFa + zVAD, CellTiter-Glo recovery). The assay is classed as cell-based. The settings on record: Homo sapiens, U-937, 18 h, TNFa 2 ng/mL + zVAD-fmk, read-out: U937 Zvad TNF CTG Recovery, U937, TNFa + zVAD (IC50). The gist of the method: as §1

Each structure is given as a SMILES string.

Consider `Cc1ccc(Cc2cnn(C(=O)N[C@H]3COc4ccc(Br)cc4N(C)C3=O)c2)cn1` [I-23, (S)—N-(7-Bromo-5-methyl-4-oxo-2,3,4,5-tetrahydrobenzo[b][1,4]oxazepin-3-yl)-4-((6-methylpyridin-3-yl)methyl)-1H-pyrazole-1-carboxamide], for which the IC50 on RIPK1 was determined as 25.7 nM; in the assay on U937 cells, 81.8 nM. The “L929-CTG-recovery, L929, TNFa + zVAD (IC50)” value in the assay on L929 cells (18 hours) was determined as 5000.

As for `Cc1cccc(Oc2ccnc(C(=O)N[C@H]3COc4ccc(C#CC(C)(C)O)cc4N(C)C3=O)c2)n1` [I-130, (S)—N-(7-(3-hydroxy-3-methylbut-1-yn-1-yl)-5-methyl-4-oxo-2,3,4,5-tetrahydrobenzo[b][1,4]oxazepin-3-yl)-4-((6-methylpyridin-2-yl)oxy)picolinamide], the IC50 on RIPK1 was determined as 33.4 nM; in the assay on L929 cells, 5040 nM; in the assay on U937 cells, 311 nM.

As for `CN1C(=O)[C@@H](NC(=O)c2cc(Oc3cnn(C)c3)ccn2)COc2ccc(C#CC3CCOCC3)cc21` [I-136, (S)-4-((1-methyl-1H-pyrazol-4-yl)oxy)-N-(5-methyl-4-oxo-7-((tetrahydro-2H-pyran-4-yl)ethynyl)-2,3,4,5-tetrahydrobenzo[b][1,4]oxazepin-3-yl)picolinamide], the figures for the half-maximal inhibitory concentration (IC50) at RIPK1, in the assay on L929 cells and with U937 cells were 7.7 nM, 5.4 nM and 0.7 nM, respectively.

As to `CN1C(=O)[C@@H](NC(=O)n2cc(Cc3cccc(F)n3)cn2)CCc2ccc(C#CC(C)(C)O)cc21` [I-114, (S)-4-((6-Fluoropyridin-2-yl)methyl)-N-(8-(3-hydroxy-3-methylbut-1-yn-1-yl)-1-methyl-2-oxo-2,3,4,5-tetrahydro-1H-benzo[b]azepin-3-yl)-1H-pyrazole-1-carboxamide], the IC50 on RIPK1 worked out at 19.4 nM; in the assay on L929 cells it was 51.2 nM; with U937 cells it was 1 nM.

As for `CN1C(=O)[C@@H](NC(=O)c2cc(Oc3cccnc3)ccn2)COc2ccc(C#CC(C)(C)O)cc21` [I-58, (S)—N-(7-(3-hydroxy-3-methylbut-1-yn-1-yl)-5-methyl-4-oxo-2,3,4,5-tetrahydrobenzo[b][1,4]oxazepin-3-yl)-4-(pyridin-3-yloxy)picolinamide], the IC50 turned out to be 20.2 nM on RIPK1, 1180 nM in the assay on L929 cells and 3.8 nM in the assay on U937 cells.

`CN1C(=O)[C@@H](NC(=O)c2cc(Oc3cccnc3C(F)(F)F)ccn2)COc2ccc(C#CC(C)(C)O)cc21` [I-87, (S)—N-(7-(3-hydroxy-3-methylbut-1-yn-1-yl)-5-methyl-4-oxo-2,3,4,5-tetrahydrobenzo[b][1,4]oxazepin-3-yl)-4-((2-(trifluoromethyl)pyridin-3-yl)oxy)picolinamide]: the values for the IC50 at RIPK1, in the assay on L929 cells and with U937 cells were 51.3 nM, 11200 nM and 536 nM, respectively.

Take `CN1C(=O)[C@@H](NC(=O)c2cc(Oc3cccnc3F)ccn2)COc2ccc(C#CC(C)(C)C)cc21` [I-95, (S)—N-(7-(3,3-dimethylbut-1-yn-1-yl)-5-methyl-4-oxo-2,3,4,5-tetrahydrobenzo[b][1,4]oxazepin-3-yl)-4-((2-fluoropyridin-3-yl)oxy)picolinamide]: the figures for the IC50 at RIPK1, in the assay on L929 cells and in the assay with U937 cells were 63.4 nM, 354 nM and 3.2 nM, respectively.

`CN1C(=O)[C@@H](NC(=O)n2cc(Cc3cccnc3)cn2)COc2ccc(C#CC(C)(C)O)cc21` [I-14, (S)—N-(7-(3-Hydroxy-3-methylbut-1-yn-1-yl)-5-methyl-4-oxo-2,3,4,5-tetrahydrobenzo[b][1,4]oxazepin-3-yl)-4-(pyridin-3-ylmethyl)-1H-pyrazole-1-carboxamide]: the figures for the IC50 on RIPK1, in the assay on L929 cells and in the assay with U937 cells were 17.6 nM, 1170 nM and 14.3 nM, respectively.

Regarding `Cc1nc(Cc2ccnc(C(=O)N[C@H]3COc4ccc(C#CC5CCOCC5)cc4N(C)C3=O)c2)cs1` [I-90, (S)—N-(5-methyl-4-oxo-7-((tetrahydro-2H-pyran-4-yl)ethynyl)-2,3,4,5-tetrahydrobenzo[b][1,4]oxazepin-3-yl)-4-((2-methylthiazol-4-yl)methyl)picolinamide], the IC50 on RIPK1 was 20 nM; in the assay on L929 cells, 20.5 nM; with U937 cells, 1.9 nM.

Consider `CN1C(=O)[C@@H](NC(=O)n2cc(Cc3cccc(F)n3)cn2)CCc2ccc(C#CC3(O)COC3)cc21` [I-113, (S)-4-((6-Fluoropyridin-2-yl)methyl)-N-(8-((3-hydroxyoxetan-3-yl)ethynyl)-1-methyl-2-oxo-2,3,4,5-tetrahydro-1H-benzo[b]azepin-3-yl)-1H-pyrazole-1-carboxamide], for which the values for the IC50 on RIPK1, in the assay with L929 cells and with U937 cells were 11.8 nM, 37 nM and 1.3 nM, respectively.

For the compound `Cc1cccc(Cc2cnn(C(=O)N[C@H]3COc4ccc(C#CC(C)(C)O)cc4N(C)C3=O)c2)n1` [I-2, (S)—N-(7-(3-Hydroxy-3-methylbut-1-yn-1-yl)-5-methyl-4-oxo-2,3,4,5-tetrahydrobenzo[b][1,4]oxazepin-3-yl)-4-((6-methylpyridin-2-yl)methyl)-1H-pyrazole-1-carboxamide], the IC50 came to 42.2 nM at RIPK1, 1800 nM in the assay with L929 cells and 49.7 nM with U937 cells.

For the compound `CN1C(=O)[C@@H](NC(=O)c2cc(Oc3ccc(F)nc3)ccn2)COc2ccc(C#CC3(O)COC3)cc21` [I-5, (S)-4-((6-fluoropyridin-3-yl)oxy)-N-(7-((3-hydroxyoxetan-3-yl)ethynyl)-5-methyl-4-oxo-2,3,4,5-tetrahydrobenzo[b][1,4]oxazepin-3-yl)picolinamide], the IC50 at RIPK1 was found to be 24.6 nM; with L929 cells, 2020 nM; in the assay on U937 cells, 34.9 nM.

In the case of `CN1C(=O)[C@@H](NC(=O)n2cc(Cc3cccc(F)n3)cn2)COc2ccc(C#CC3COC3)cc21` [I-108, (S)-4-((6-Fluoropyridin-2-yl)methyl)-N-(5-methyl-7-(oxetan-3-ylethynyl)-4-oxo-2,3,4,5-tetrahydrobenzo[b][1,4]oxazepin-3-yl)-1H-pyrazole-1-carboxamide], the half-inhibitory concentration (IC50) on RIPK1 is 88 nM; in the assay with L929 cells, 2090 nM; in the assay on U937 cells it was 12.8 nM.

As to `CN1C(=O)[C@@H](NC(=O)n2cc(Cc3cccnc3F)cn2)COc2ccc(C#CC3CCOCC3)cc21` [I-45, (S)-4-((2-Fluoropyridin-3-yl)methyl)-N-(5-methyl-4-oxo-7-((tetrahydro-2H-pyran-4-yl)ethynyl)-2,3,4,5-tetrahydrobenzo[b][1,4]oxazepin-3-yl)-1H-pyrazole-1-carboxamide], the values for the IC50 at RIPK1, in the assay on L929 cells and in the assay on U937 cells were 45 nM, 512 nM and 5.2 nM, respectively.

Take `CN1C(=O)[C@@H](NC(=O)n2cc(Cc3cccc(F)n3)cn2)COc2ccc(C#CC(C)(C)C)cc21` [I-106, (S)—N-(7-(3,3-Dimethylbut-1-yn-1-yl)-5-methyl-4-oxo-2,3,4,5-tetrahydrobenzo[b][1,4]oxazepin-3-yl)-4-((6-fluoropyridin-2-yl)methyl)-1H-pyrazole-1-carboxamide]: the figures for the IC50 at RIPK1, with L929 cells and in the assay with U937 cells were 22.4 nM, 750 nM and 4.3 nM, respectively.

Consider `CN1C(=O)[C@@H](NC(=O)n2cc(Cc3cccc(F)n3)cn2)COc2ccc(C#CC3(O)CCOCC3)cc21` [I-33, (S)-4-((6-Fluoropyridin-2-yl)methyl)-N-(7-((4-hydroxytetrahydro-2H-pyran-4-yl)ethynyl)-5-methyl-4-oxo-2,3,4,5-tetrahydrobenzo[b][1,4]oxazepin-3-yl)-1H-pyrazole-1-carboxamide], for which the IC50 on RIPK1 stood at 17.1 nM; in the assay on L929 cells it was 1130 nM; in the assay on U937 cells it was 11.6 nM.

Regarding `CN1C(=O)[C@@H](NC(=O)c2cc(Oc3cccnc3)ccn2)COc2ccc(C#CC3CCOCC3)cc21` [I-63, (S)—N-(5-methyl-4-oxo-7-((tetrahydro-2H-pyran-4-yl)ethynyl)-2,3,4,5-tetrahydrobenzo[b][1,4]oxazepin-3-yl)-4-(pyridin-3-yloxy)picolinamide], the results for the IC50 on RIPK1, in the assay on L929 cells and with U937 cells were 19.5 nM, 60 nM and 0.7 nM, respectively.

Regarding `CN1C(=O)[C@@H](NC(=O)c2cc(Cc3ccccn3)ccn2)COc2ccc(C#CC3(O)COC3)cc21` [I-64, (S)—N-(7-((3-hydroxyoxetan-3-yl)ethynyl)-5-methyl-4-oxo-2,3,4,5-tetrahydrobenzo[b][1,4]oxazepin-3-yl)-4-(pyridin-2-ylmethyl)picolinamide], the IC50 is 30.7 nM at RIPK1, 767 nM in the assay on L929 cells and 67.9 nM with U937 cells.

What is called IC50 is the concentration that inhibits the measured activity by half.
